# Laboratory results reported in patent publication US9446063B2, “Methods for treating type-2 diabetes and obesity” (priority 2009, dated 2016).
# Where two headings read alike, the source gives them in different places. Marks after values point to notes of the source that are not given here.
# How the values were obtained:
# [1] = system: potato microtubers of cvs. Onaway and Goldrush; assay: H2O2 hormesis: antioxidant capacity (DPPH) of in vitro-grown microtubers; conditions: for DPPH total antioxidant capacity of microtubers: mean ± SE (n = 5)
# Method: Plantlets of cvs. Onaway and Goldrush were selected for their relatively high concentrations of antioxidants in field-grown tubers. […] Medium consisted of basal salt solution and organic fraction solidified with 7 g 1^-1 agar ([…]) adjusted to pH 5.7 before autoclaving at 121° C. for 20 min. […] (1994). […] Phase I promoted the vegetative growth of plantlets which was luxurious after 4 weeks. In Phase II, the residual medium was drained and replaced with 150 ml of liquid induction medium containing increased sucrose (80 gl^-1) and no growth regulators. […] Phase II plantlets of cvs. […] At harvest, microtubers of cvs. […] (2007).
# [2] = system: potato microtubers of cvs. Onaway and Goldrush; assay: H2O2 hormesis: total phenolic content of microtubers (Folin-Ciocalteu); conditions: for Total phenolics (Folin-Ciocalteu) of microtubers: mean ± SE (n = 5)
# Method: (§1) Based on a preliminary study, concentrations of 2 and 4 mM H2O2 and spray volume of ˜6 ml were selected for hormetic treatments. Phase II plantlets of cvs. Onaway and Goldrush (at 2- and 3-weeks) were treated with three concentrations (0, 2, 4 mM) of H2O2 with 5 replicates×4 containers per replicate (20 containers per treatment). Results were analyzed for variance (ANOVA) test using General Linear Model (GLM) of Statistical Analysis System (SAS) (SAS v 9.2, 2010) (SAS Institute Inc., Cary, N.C., USA). Means were compared using Duncan's Multiple Comparison test (P≦0.05).
# (§2) At harvest, microtubers of cvs. Onaway and Goldrush were weighed, and averaged from 20 separate containers. For each replicate, microtubers were pooled for analysis, for a total of 5 samples per treatment/cultivar.
# [3] = system: potato microtubers of cvs. Onaway and Goldrush; conditions: for Increase of ascorbic acid content in comparison to control: cv. Goldrush microtubers; for Ascorbic acid of microtubers / Caffeic acid of microtubers / Chlorogenic acid of microtubers: mean ± SE (n = 5)
# Method: as §1, §2
# [4] = system: potato microtubers of cvs. Onaway and Goldrush; assay: H2O2 hormesis: microtuber mass / yield; conditions: for Microtuber mass: mean of 20 containers
# Method: (1994). […] Cultures were placed into a growth chamber adjusted to 20±2° C. under 85 μmol m^-2s^-1 cool white florescent illumination with 16:8 h day:night cycle. Phase I promoted the vegetative growth of plantlets which was luxurious after 4 weeks. In Phase II, the residual medium was drained and replaced with 150 ml of liquid induction medium containing increased sucrose (80 gl^-1) and no growth regulators. Phase II incubation occurred at cooler temperature (15±2° C.), under reduced illumination (50 μmol m^-2s^-1), and reversed (8:16 h) day:night cycle. […] Phase II plantlets of cvs. […] At harvest, microtubers of cvs. […] (2007).
# [5] = HPLC quantification of ascorbic acid, chlorogenic acid, caffeic acid, ferulic acid and rutin in tubers, tuber tissues and extracts; conditions: for % reduction; from 1 to 7 months storage (HPLC content): tubers of 12 Canadian-grown cultivars, cold storage
# Method: This assay was based on the method developed by Shakya and Navarre (J Agric Food Chem (2006) 54:5253-5260). Initially, samples (50 mg of freeze-dried powder) were extracted in 0.9 mL of extraction buffer (50% MeOH, 2.5% metaphosphoric acid, 1 mM EDTA) in a 2 mL screw cap tube. Samples were vortexed for 30 sec and centrifuged at 11,070×g for 15 min at 4° C. The supernatant was transferred to a 1.5 mL glass vial. The remaining pellet was re-extracted with 0.6 mL of extraction buffer and centrifuged. The supernatants were combined and concentrated in a Speed Vac (Thermo Savant SC 210A, Waltham, Mass.). The concentrated samples were solubilised with 500 mL of extraction buffer and filtered using 0.45 mm membrane filters (Durapore, PVDF) into 1 mL HPLC glass vials. Samples were kept chilled at all times and shielded from bright light. Samples were analyzed using a Varian HPLC system with a quaternary gradient pump, a single wavelength UV/VIS detector, and an autosampler with refrigerated sample compartment (Varian Canada Inc, Mississauga, ON). Samples were eluted using an Onyx reverse-phase HPLC column (100×4.5 mm) (Phenomenex, Netherlands), a solvent flow rate of 2 mL/min and a solvent gradient of 0-1 min 100% buffer A (10 mM formic acid, pH 3.5, with NH4OH), 1-5 min 0-30% buffer B (100% methanol with 5 mM ammonium formate), 5-6.5 min 40-0% buffer B, 6.5-8.5 min 70-100% buffer B. The phenolic acids in the samples were analyzed qualitatively and quantitatively using standards.
# Ascorbic acid concentration was also determined as it is also an important antioxidant compound present in potato. HPLC determination is based on the retention time of a particular compound within a mixed sample in the column compared with purchased pure standards. Three different buffers (Buffer A, Buffer B, & Extraction buffer) were prepared. Buffer A was 10 mM formic acid (Fisher Scientific, ON, Canada) (0.46 g of formic acid in 1 L distilled water adjusted to pH 3.5 using 1M NH4OH solution). Buffer A was kept in a fridge (4° C.) until used. Buffer B was 5 mM ammonium formate (Sigma-Aldrich Chemicals, Germany) (0.32 g of ammonium formate in 1 L 100% methanol with agitation on a magnetic stirrer as ammonium formate is highly insoluble). Buffer B was also refrigerated. The extraction buffer was 50% methanol (Fisher Scientific, ON, Canada), 2.5% metaphosphoric acid (Aldrich Chemicals, WI, USA) and 1 mM ethylenediaminetetraacetic acid (EDTA; Sigma-Aldrich Chemicals, Germany) (50 ml of 100% methanol, 2.5 g of metaphosphoric acid, and 0.4 g of EDTA in 100 ml distilled water with stirring followed by filtering using a cup filter (Millipore Corporation, MS, USA). The extraction buffer was also refrigerated. […]
# [6] = system: IL-8 release in Caco-2 cell cultures; conditions: cited from earlier work
# [7] = system: C57BL/6J mice with diet-induced obesity; assay: Body weight gain in high fat diet feeding study (10 wk); type: in vivo; conditions: for Body weight gain: mean ± SD (n = 3-5)
# [8] = system: carnitine palmitoyltransferase; conditions: cited from earlier work
# [9] = system: male mice; conditions: high fat diet, 1 g/kg diet; cited from earlier work
# [10] = system: C57BL/6J mice with diet-induced obesity; assay: Blood glucose concentration at the end of the HFD feeding period; conditions: mean ± SD (n = 3-5)
# [11] = Females, HFD + 1X (1x CGA 8 mg/kg HFD; 1x FA 20 mg/kg HFD)
# [12] = Females, HFD + 5X (1x CGA 8 mg/kg HFD; 1x FA 20 mg/kg HFD)
# [13] = Females, HFD + 25X (1x CGA 8 mg/kg HFD; 1x FA 20 mg/kg HFD)
# [14] = Males, HFD + 1X (1x CGA 8 mg/kg HFD; 1x FA 20 mg/kg HFD)
# [15] = Males, HFD + 5X (1x CGA 8 mg/kg HFD; 1x FA 20 mg/kg HFD)
# [16] = Males, HFD + 25X (1x CGA 8 mg/kg HFD; 1x FA 20 mg/kg HFD)
smiles,measurement,setting,value
"OO [H2O2, Hydrogen peroxide]",Increase of antioxidant capacity (DPPH) over control,"[1]; cv. Goldrush microtubers, 2 mM H2O2 spray",26%
same,Increase of antioxidant capacity (DPPH) over control,"[1]; cv. Goldrush microtubers, 4 mM H2O2 spray",20%
same,DPPH total antioxidant capacity of microtubers,"[1]; cv. Goldrush, 2 mM H2O2 spray",1.316 ± 0.02^a mg/g
same,DPPH total antioxidant capacity of microtubers,"[1]; cv. Goldrush, 4 mM H2O2 spray",1.214 ± 0.04^b mg/g
same,Increase of antioxidant capacity (DPPH) over control,"[1]; cv. Onaway microtubers, 2 or 4 mM H2O2",12-14%
same,DPPH total antioxidant capacity of microtubers,"[1]; cv. Onaway, 2 mM H2O2 spray",0.862 ± 0.02^a mg/g
same,DPPH total antioxidant capacity of microtubers,"[1]; cv. Onaway, 4 mM H2O2 spray",0.882 ± 0.04^a mg/g
same,Total phenolics (Folin-Ciocalteu) of microtubers,"[2]; cv. Goldrush, 2 mM H2O2 spray",7.076 ± 0.01^a mg/g
same,Total phenolics (Folin-Ciocalteu) of microtubers,"[2]; cv. Goldrush, 4 mM H2O2 spray",6.354 ± 0.00^a mg/g
same,Total phenolics (Folin-Ciocalteu) of microtubers,"[2]; cv. Onaway, 2 mM H2O2 spray",4.376 ± 0.00^a mg/g
same,Total phenolics (Folin-Ciocalteu) of microtubers,"[2]; cv. Onaway, 4 mM H2O2 spray",3.789 ± 0.00^a mg/g
same,Effect on total polyphenolic levels (Folin-Ciocalteu),"[2]; either cultivar, 2 and 4 mM",not significantly affected
same,Increase of ascorbic acid content in comparison to control,[3]; 2 mM,35%
same,Increase of ascorbic acid content in comparison to control,[3]; 4 mM,34%
same,Effect on microtuber caffeic acid content,"[3]; cv. Goldrush, 2 mM",significant depression
same,Increase of microtuber chlorogenic acid content,"[3]; cv. Goldrush, 2 mM",16.8%
same,Ascorbic acid of microtubers,"[3]; cv. Goldrush, 2 mM H2O2 spray",0.269 ± 0.03^a mg/g
same,Caffeic acid of microtubers,"[3]; cv. Goldrush, 2 mM H2O2 spray",0.008 ± 0.00^b mg/g
same,Chlorogenic acid of microtubers,"[3]; cv. Goldrush, 2 mM H2O2 spray",0.561 ± 0.02^a mg/g
same,Ascorbic acid of microtubers,"[3]; cv. Goldrush, 4 mM H2O2 spray",0.265 ± 0.00^a mg/g
same,Caffeic acid of microtubers,"[3]; cv. Goldrush, 4 mM H2O2 spray",0.011 ± 0.00^a mg/g
same,Chlorogenic acid of microtubers,"[3]; cv. Goldrush, 4 mM H2O2 spray",0.460 ± 0.02^b mg/g
same,Treatment effect on ascorbic acid content,[3]; cv. Onaway microtubers,not significant
same,Increase of microtuber chlorogenic acid content,"[3]; cv. Onaway, 2 mM",17.3%
same,Ascorbic acid of microtubers,"[3]; cv. Onaway, 2 mM H2O2 spray",0.170 ± 0.02^a mg/g
same,Caffeic acid of microtubers,"[3]; cv. Onaway, 2 mM H2O2 spray",0.002 ± 0.00^a mg/g
same,Chlorogenic acid of microtubers,"[3]; cv. Onaway, 2 mM H2O2 spray",0.304 ± 0.02^a mg/g
same,Ascorbic acid of microtubers,"[3]; cv. Onaway, 4 mM H2O2 spray",0.164 ± 0.02^a mg/g
same,Caffeic acid of microtubers,"[3]; cv. Onaway, 4 mM H2O2 spray",0.001 ± 0.00^b mg/g
same,Chlorogenic acid of microtubers,"[3]; cv. Onaway, 4 mM H2O2 spray",0.265 ± 0.04^ab mg/g
same,Effect on microtuber yield,"[4]; at the dosage applied (2, 4 mM)",did not affect yield
same,Microtuber mass,"[4]; cv. Goldrush, 2 mM H2O2 spray",10.25^a g
same,Microtuber mass,"[4]; cv. Goldrush, 4 mM H2O2 spray",10.26^a g
same,Microtuber mass,"[4]; cv. Onaway, 2 mM H2O2 spray",5.09^a g
same,Microtuber mass,"[4]; cv. Onaway, 4 mM H2O2 spray",5.07^a g
O=C1O[C@H]([C@@H](O)CO)C(O)=C1O [ascorbic acid],% reduction of ascorbic acid with storage,"[5]; tubers of 5 foreign cultivars, 1 to 7 months storage",36.09%
same,% reduction; from 1 to 7 months storage (HPLC content),[5],80.48%
O=C(O)/C=C/c1ccc(O)c(O)c1 [caffeic acid],% reduction; from 1 to 7 months storage (HPLC content),[5],92.16%
same,Dose needed to suppress IL-8 secretion to levels seen in control cultures,[6],2000 µM
O=C(/C=C/c1ccc(O)c(O)c1)O[C@@H]1C[C@](O)(C(=O)O)C[C@@H](O)[C@H]1O [chlorogenic acid],Body weight gain,[7]; [11],9.7 ± 4.9^a g
same,Body weight gain,[7]; [12],7.6 ± 4.1^a g
same,Body weight gain,[7]; [13],9.8 ± 3.4^a g
same,Body weight gain,[7]; [14],22.4 ± 0.8^b g
same,Body weight gain,[7]; [15],"18.2 ± 4.1^a,b,c g"
same,Body weight gain,[7]; [16],8.8 ± 5.3^c g
same,Effect of pure compound on body weight,"[7]; female mice, up to 200 mg/kg diet",no statistically significant effect
same,Effect of pure compound on body weight gain,"[7]; male mice, 8-200 mg/kg diet",did not affect body weight gain
same,Dose needed to suppress IL-8 secretion to levels seen in control cultures,[6],2000 µM
same,Carnitine palmitoyltransferase activity,[8],unaffected
same,Effect on body weight gain,[9],no effect on body weight gain
COc1cc(/C=C/C(=O)O)ccc1O [ferulic acid],% reduction; from 1 to 7 months storage (HPLC content),[5],90.21%
same,Body weight gain,[7]; [11],9.7 ± 3.4^a g
same,Body weight gain,[7]; [12],6.3 ± 1.2^a g
same,Body weight gain,[7]; [13],8.8 ± 5.0^a g
same,Body weight gain,[7]; [14],"12.4 ± 3.7^a,b,c g"
same,Body weight gain,[7]; [15],"10.8 ± 2.3^a,b,c g"
same,Body weight gain,[7]; [16],"11.0 ± 6.5^a,b,c g"
same,Effect of pure compound on body weight gain,"[7]; both sexes, up to 500 mg/kg diet",ineffective in suppressing body weight gain
same,Fasting blood glucose,[10]; [11],3.8 ± 0.6^a mmol/L
same,Fasting blood glucose,[10]; [12],6.9 ± 1.1^a mmol/L
same,Fasting blood glucose,[10]; [13],4.7 ± 1.6^a mmol/L
same,Fasting blood glucose,[10]; [14],5.2 ± 0.6^b mmol/L
same,Fasting blood glucose,[10]; [15],6.1 ± 1.2^a mmol/L
same,Fasting blood glucose,[10]; [16],5.4 ± 0.2^b mmol/L
O=C(/C=C/c1ccc(O)c(O)c1)O[C@@H]1C[C@@](O)(C(=O)O)C[C@@H](O)[C@@H]1O [neochlorogenic acid],Carnitine palmitoyltransferase activity,[8],enhanced
